# Experimental data reported in US20100178243A1, “Novel method of stabilizing diagnostic and therapeutic compounds in a cationic carrier system” (MediGene AG, priority 2002, published 2010).
# Key:
# [1] = UV-vis absorption maximum (band shift) of liposome-associated fluorescein dyes; format: physicochemical; details: 25 mM
# Protocol: (§1) As an example, in table 1 the results from some experiments are given. For comparison as well a formulation with anionic lipids was performed. For the anionic liposomes, most of the dye is lost during diafiltration, while for the cationic liposomes a large molar fraction of the dye remains immobilized in the lioposme suspension. […] For the CF experiments a lower bulk concentration of the dye was selected, because in that case binding is so strong, that for higher concentrations the liposomes will be destabilized due to the sterical hindrance by the CF molecules. The fraction of dye which was found immobilized in the suspensions from cationic liposomes was much higher that for the (anionic) DOPG containing liposomes. A band shift (λ max) in the absorption spectrum was observed, which increased as AF<F<CF, indication increasing binding strength. On the contrary, for the DOPG liposomes, no shift of the absorption maximum occurred. This can be seen most clearly in FIG. 1, where the complete spectra for the free and the liposomal dyes are depicted. All stages of formulation are monitored by HPLC analysis (lipid and drug) and by UV-vis spectroscopy. In HPLC analysis a slight loss of material after extrusion may be observed. UV-vis spectroscopy serves as a qualitative means in order to control formulation efficacy. The UV-vis spectra of the dye are shifted on binding to the lipid. The band shift is a function of the binding constant and the fraction of lipid bound and free dye can be estimated by UV-vis spectroscopy.
# [2] = Remote loading of DOTAP/DOPC liposomes with AF, dialysis and UV-vis; format: physicochemical; details: remote loading: 25 mM DOTAP/DOPC liposomes mixed with equal volume of 5 mM AF
# Protocol: The association of the dye to the liposomes can be performed as well to an already prepared formulation, by simply mixing the dye solution with the liposome suspension. […] The efficacy of the loading can be determined by diafiltration and by UV-vis and fluorescence spectroscopy of the suspension. As an example the results from remote loading of DOTAP/DOPC liposomes with AF (the most weakly binding fluorescein variety) are given. A 25 mM suspension of the pure lipid liposomes was prepared by the standard procedure. Then a 5 mM solution of AF was added to the suspension (equal volumina). Subsequently the suspension was dialyzed in order to remove the free dye. The dye content in the solution was controlled by UV-vis spectroscopy. In FIG. 2, the spectra after mixing, after dialysis, and after addition of triton are shown. The triton was added in order to destroy the liposomes and the release the lipid-bound dye.
# [3] = Diafiltration: retention of fluorescein dyes in liposome suspension (direct loading); format: physicochemical; details: for Conc. marker after diafiltration: 25 mM
# Excerpt: Liposomes may be formed by the well-known film method, such as described in the literature.[1] Briefly, from the organic solution of the lipid, or the lipid plus the drug, the solvent is evaporated, and a thin film of lipid (or lipid plus drug) is formed at the inner wall of a flask. The thin molecular film is resuspended in an aqueous phase, which contains the dye, and which may contain further components such as buffers, ions, cryoprotectants, etc. A typical formulation consists of a suspension of 25 mM DOTAP/DOPC 1:1, which is resuspended by a 5 mM solution of the dye.
# as §1, with “depicted.” for “depicted. All stages of formulation are monitored by HPLC analysis (lipid and drug) and by UV-vis spectroscopy. In HPLC analysis a slight loss of material after extrusion may be observed. UV-vis spectroscopy serves as a qualitative means in order to control formulation efficacy. The UV-vis spectra of the dye are shifted on binding to the lipid. The band shift is a function of the binding constant and the fraction of lipid bound and free dye can be estimated by UV-vis spectroscopy.”
# Separation of low molecular compounds from the liposomal suspensions Diafiltration techniques were used to separate low molecular components from the liposomal suspensions. For the above described 15 mM DOTAP/DOPC 1:1 formulations with 5 mM dye in the aqueous phase, ca. 50% of the dye was retained in the liposome suspension for AF, and 60% was retained for F. With 0.5 mM of CF, virtually 100% of the dye was retained in the solution (the amount of released dye was monitored by UV-vis)spectroscopy.
# [4] = Gel filtration (Microspin S-300 HR) separation of non-associated patent blue from liposomes; format: physicochemical; details: 50 μl loaded on Microspin S-300 HR
# Protocol: Gel filtration is employed to separate the dye (MW<1000 Da) from the colloidal liposome. The free dye is retained in the pores of the column, the liposomes are so large that they elute without retention in the void volume. It is expected that in a liposomal formulation with a lipid concentration of 10 mM approximately 2% of the aqueous phase is entrapped in the liposomes, 98% are not entrapped (Liposomes a practical approach, Ed. R. R. C. New, IRL Press, Oxford 1990). This amount of dye is to be separated from the liposome by gel filtration.
# A Microspin™ S-300 HR column (Amersham) was pre-equilibrated as required in the product description and loaded with 50 μl of the neutral liposomal formulation C. The goal was to investigate whether patent blue not associated with the liposomes can be separated from the liposomal fraction as described in the literature (Reynolds, J. A.; Nozaki, Y.; Tanford, C. Gel-exclusion chromatography on S1000 Sephacryl: application to phospholipid vesicles. Anal Biochem 1983, 130 (2), 471-474.) The majority of the dye was retained on the column, a slightly blue solution eluted (liposomes with associated dye; about 2% as estimated by UV spectroscopy). This illustrates that for neutral liposomes we can apply well-established separation protocols to separate un-associated material. […]
# A-375 = experiment: MTT cell viability assay, 72 h; format: cell-based; details: Homo sapiens
# Protocol: (§2) A-375 ([…]) and Ea.Hy cells ([…]) is seeded at a constant density (2×10^4/cm^2) in 24-well plates and cultivated over night at conditions of 5-5.5% CO2, 37° C. and ˜90% humidity. At day 1, cell culture medium is replaced by a mixture of fresh medium and a series of 11 consecutive drug dilutions is added to each well (duplicates) to cover a range between 0.1 and 1000 nM final drug concentration. After 72 h, the cell viability in each well is determined by measuring the activity of mitochondrial dehydrogenases (MTT assay). In viable cells the MTT substrate is converted to a blue, cell impermeable dye (Formazan). After 1 h the medium is removed, cells are lysed with isopropanol/0.04% HCl and the amount of the blue Formazan given as optical density at a wavelength of 550 nm (OD550 nm) quantitated in an ELISA reader. The experiment is evaluated using the Sigma Plot analysis software by plotting the mean OD550 nm value against the respective drug concentration. A best fit curve is calculated based on a double-sigmoid assumption algorithm and the IC50 value is determined according to this best fit curve with the following result: […]
# Ea.Hy cells = experiment: MTT cell viability assay, 72 h; format: cell-based; details: Homo sapiens
# Protocol: as §2
# A-375 Melanoma = experiment: Treatment of A-375 melanoma in NMRI nude mice with Taxol and SuccTXL cationic liposomes; format: in vivo; details: iv, three times a week for three weeks, equitoxic doses; s.c. A-375 tumors; FIG. 9
# Protocol: NMRI-nude mice from Elevage Janvier and housed in isolated ventilated cages under save environmental conditions (SPF facility, 22° C., 30-70% humidity, 12 h light/dark cycle) with food and water ad libitum. Experimental design was reviewed and approved by local government.
# Tumor cells (A-375 human melanoma cell line, ATCC Nr.: CRL-1619) were grown as described in the data sheet supplied by ATCC. Tumor cells (5×10^6 in PBS) were inoculated s.c. in the right dorsal flank of mice in a volume of 50 μl on day 0.
# Mice were assigned to the experimental groups (8 animals per cage), housed and handled (including monitoring of the body weight gain) at least five days before tumor inoculation (=day −6 to 0). Drug treatment begins after the tumors reached a volume of approximately 100 mm^3. […] Equitoxic doses of the compounds were determined in separate experiments, where toxicity was evaluated based on haematological parameters, body weight and animal clinical observations. […]
# Animals were clinically monitored during the whole experiment and for at least one week after treatment was finished. […] The tumor dimensions were measured by calliper and the tumor size was calculated according to the following formula: V=πLW^2/6 (L=greatest length, W=width of perpendicular axis). […] The number of red and white blood cells and platelets were determined using an automated cell counter (Abbott Cell Dyn 3500).
# [5] = Liposomal fluoride concentration after dialysis (ion chromatography); format: physicochemical; details: rehydrated with 150 mM sodium fluoride, 3 dialysis steps
# Protocol: The lipids (either 10 mM DOTAP or 10 mM DOPC) are dissolved in chloroform and the solution is transferred into a round bottom flask. The organic solvent is evaporated under reduced pressure forming a clear lipid film on the flask's surface. This film is dried at 40° C. under vacuum (3 to 5 mbar) for about 60 minutes. Then, the film is rehydrated with the appropriate volume of an aqueous 150 mM sodium fluoride solution resulting in a liposomal solution. The next day, the liposomal solution is extruded 5 times through a 200 nm membrane. The size of the liposomes is determined by PCS (Zetasizer 1000 and 3000, Malvern Instruments). The fluoride that is not associated with the liposomes is removed by 3 successive dialysis steps (8 hours, Pierce, Slide-A-Lyzer dialysis cassette; 10000 molecular weight cut off) and the liposomal fluoride concentration is established by ion chromatography. For cationic 10 mM DOTAP liposomes the fluoride concentration is 1.3 mM, whereas the fluoride ion concentration is about 4 times lower for neutral 10 mM DOPC liposomes (0.3 mM fluoride). The far lower fluoride ion concentration of neutral liposomes is explained by the attractive forces of cationic lipids interacting with the negatively charged halide anion.
# [6] = Chemical stability of succinyl paclitaxel in aqueous solution (HPLC, paclitaxel release); format: physicochemical; details: for paclitaxel release: 4° C., 0.1 mM Tris-buffered
compound,measurement,setting,value
"Nc1ccc(-c2c3ccc(=O)cc-3oc3cc(O)ccc23)c(C(=O)O)c1 [AF, aminofluorescein]",λ max,[1]; DOTAP/DOPC 50/50 liposomes,497.6 nm
same,dye remained bound to the liposomes after dialysis,[2],ca. 50%
same,dye retained in the liposome suspension after diafiltration,"[3]; 15 mM DOTAP/DOPC 1:1, 5 mM dye in the aqueous phase",ca. 50%
same,Conc. marker after diafiltration,"[3]; DOTAP/DOPC 50/50 liposomes, conc. before diafiltration […]",0.8 mg/mL
"CCN(CC)c1ccc(C(=C2C=CC(=[N+](CC)CC)C=C2)c2cc(O)c(S(=O)(=O)O)cc2S(=O)(=O)O)cc1 [PB, Patent blue]",separation of dye from liposomes on gel filtration column (in words),[4],trapped in the pores of the column material
"CC(=O)O[C@H]1C(=O)[C@@]2(C)[C@H]([C@H](OC(=O)c3ccccc3)[C@]3(O)C[C@H](OC(=O)[C@H](O)[C@@H](NC(=O)c4ccccc4)c4ccccc4)C(C)=C1C3(C)C)[C@]1(OC(C)=O)CO[C@@H]1C[C@@H]2O [Taxol ®, Paclitaxel]",IC50,A-375,2 nM
same,IC50,Ea.Hy cells,3 nM
same,tumor growth rate (in words),A-375 Melanoma,reduced the tumor growth only to a limited extent
"[F-].[Na+] [fluoride, sodium fluoride]",liposomal fluoride concentration,[5]; cationic 10 mM DOTAP liposomes,1.3 mM
same,liposomal fluoride concentration,[5]; neutral 10 mM DOPC liposomes,0.3 mM
CC(=O)O[C@H]1C(=O)[C@@]2(C)C([C@H](OC(=O)c3ccccc3)[C@]3(O)C[C@H](OC(=O)C(OC(=O)CCC(=O)O)C(NC(=O)c4ccccc4)c4ccccc4)C(C)=C1C3(C)C)[C@]1(OC(C)=O)CO[C@@H]1C[C@@H]2O (stereo partly drawn) [succinyl paclitaxel],IC50,A-375,10 nM
same,IC50,Ea.Hy cells,17 nM
same,paclitaxel release,"[6]; pH 5, after 9 days",4%
same,paclitaxel release,"[6]; pH 7, after 9 days",4%
same,paclitaxel release,"[6]; pH 9, after 9 days",70%
same,paclitaxel release (in words),"[6]; 40° C., all pH values (5, 7, 9), within 56 hours",intensive release of paclitaxel
carboxy-fluorescein [CF],λ max,[1]; DOPG/DOPC 95/5 liposomes,492.6 nm
same,λ max,[1]; DOTAP/DOPC 50/50 liposomes,506 nm
same,dye retained in the liposome suspension after diafiltration,"[3]; 15 mM DOTAP/DOPC 1:1, 0.5 mM of CF",~100%
same,Conc. marker after diafiltration,"[3]; DOPG/DOPC 95/5 (anionic) liposomes, conc. before diafiltration 1.9 mg/ml",0.12 mg/mL
same,Conc. marker after diafiltration,"[3]; DOTAP/DOPC 50/50 liposomes, conc. before diafiltration 0.19 mg/ml",0.19 mg/mL
